Laboratory results: US8476255B2, “Histone deacetylase inhibitors” (Orchid Chemicals & Pharmaceuticals Limited, priority 2007, dated 2013)

Key:
[1] = system: NCIH460 (lung) cells; assay: Anti-cancer screen (MTT), NCIH460; format: cell-based; settings: Homo sapiens, NCI-H460, NCIH460, 48 hours, MTT; for GI50: read-out: Cell growth inhibition NCIH460 (Lung) GI50; for LC50: read-out: Cell growth inhibition NCIH460 (Lung) LC50; for IC (TGI): read-out: Cell growth inhibition NCIH460 (Lung) TGI
Description: (§1) Experimental drugs were screened for anti-cancer activity in three cell lines using five concentrations for each compound. The cell lines —HCT 116 (colon), NCIH460 (lung) and U251 (glioma) were maintained in DMEM containing 10% fetal bovine serum. 96-well microtiter plates are inoculated with cells in 100 μL of cell suspension (5×10^4 cells/mL) for 24 hours at 37° C., 5% CO2, 95% air and 100% relative humidity. A separate plate with these cell lines is also inoculated to determine cell viability before the addition of the compounds (T0).
(§2) Following 24-hours incubation, test compounds were added to the 96 well plates. Each plate contains one of the above cell lines and the following samples in triplicate: five different dilutions (0.01, 0.1, 1, 10 and 100 μM) of four test compounds, appropriate dilutions of a cytotoxic standard and growth medium (untreated) wells. Test compounds were dissolved in DMSO to prepare 20 mM stock solutions on the day of drug addition and serial dilutions were carried out in complete growth medium at 2× strength such that 100 μL added to wells gave final concentrations (0.01, 0.1, 1, 10 and 100 μM) in the well. SAHA was used as standard drug in these experiments.
(§3) For T0 measurement, 24 hours after seeding the cells, 20 μL of 3-(4,5-dimethyl-2-thiazolyl)-2,5-diphenyl-2H-tetrazolium (MTT) solution per well was added to the ‘T0’ plate and incubated for 3 hours at 37° C. in a CO2 incubator. The plate containing cells and test compounds was treated similarly after 48 hours of incubation. After 3 hours of MTT addition, well contents were aspirated carefully followed by addition of 150 μL DMSO per well. Plates were agitated to ensure dissolution of the formazan crystals in DMSO and absorbance was read at 570 nm (A570).
(§4) (Mosmann T. Rapid colorimetric assay for cellular growth and survival: application to proliferation and cytotoxicity assays. J Immunol Methods 1983; 65(1-2): 55-63; Anne Monks et al. Feasibility of high-flux anticancer drug screen using a diverse panel of cultured human tumor cell lines”. JNCI, Vol. 83, No. 11, 1991).

[2] = system: HCT 116 (colon) cells; assay: Anti-cancer screen (MTT), HCT 116; format: cell-based; settings: Homo sapiens, HCT-116, HCT116, 48 hours, MTT; for GI50: read-out: Cell growth inhibition HCT116 (Colon) GI50; for CC50: read-out: Cell growth inhibition HCT116 (Colon) LC50; for IC (TGI): read-out: Cell growth inhibition HCT116 (Colon) TGI
Description: as §1, §2, §3, §4

[3] = system: NCIH460, HCT116 and U251 cells; assay: Anti-cancer screen, mean GI50 over cell lines; format: cell-based; settings: mean over cell lines; read-out: Cell growth inhibition Mean GI50
Description: as §1, §2, §3, §4

[4] = system: HDAC (Mouse Liver Extract); assay: HDAC inhibition assay using Boc-Lys(Ac)-AMC substrate; format: biochemical; settings: mouse liver enzyme
Description: Inhibition of HDAC has been implicated to modulate transcription and to induce apoptosis or differentiation in cancer cells. The fluorometric assay provides a fast and fluorescence based method that eliminates radioactivity, extractions or chromatography, as used in traditional assays. The assay is based on two steps. First, the HDAC fluorometric substrate, which comprises an acetylated lysine side chain, is incubated with a sample containing HDAC activity (Mouse Liver Extract). Deacetylation of the substrate sensitizes the substrate, in the second step; treatment with the Trypsin stop solution produces a fluorophore that can be easily analyzed using fluorescence plate reader. Assay was done in 96-well black microplate and total volume of the assay was […]. […] The plate was pre-incubated at 37° C. for 5 minutes. […] The plate was incubated at 37° C. for 30 min. The reaction was stopped by adding 100 μL, of Trypsin stop solution and incubating at 37° C. for 15-30 min. Measuring the fluorescence at excitation wavelength of 360 nm and emission wavelength of 460 nm monitored the release of AMC. Buffer alone and substrate alone served as blank. […] (Dennis Wegener et al, Anal. Biochem, 321, 2003, 202-208).

[5] = system: U251 (glioma) cells; assay: Anti-cancer screen (MTT), U251; format: cell-based; settings: Homo sapiens, U-251, U251, 48 hours, MTT; for GI50: read-out: Cell growth inhibition U251 (Glioma) GI50; for LC50 (concentration giving 50% net cell kill relative to the time-zero cell count): read-out: Cell growth inhibition U251 (Glioma) LC50; for IC (TGI): read-out: Cell growth inhibition U251 (Glioma) TGI
Description: as §1, §2, §3, §4

SMILES	GI50 [1] [µM]	LC50 [1] [µM]	IC (TGI) [1] [µM]	GI50 [2] [µM]	CC50 [2] [µM]	IC (TGI) [2] [µM]	GI50 [3] [µM]	HDAC inhibition % (1 μM) [4] [%]	HDAC inhibition % (10 μM) [4] [%]	IC50 [4] [µM]	GI50 [5] [µM]	LC50 (concentration giving 50% net cell kill relative to the time-zero cell count) [5] [µM]	IC (TGI) [5] [µM]
Nc1ccccc1NC(=O)c1ccc(CNC(=O)/C(=C/c2ccc(F)c(C(F)(F)F)c2)c2ccc([N+](=O)[O-])cc2)cc1 [Compound 5, N-(2-Aminophenyl)-4-((3-(4-fluoro-3-trifluoromethylphenyl)-2-(4-nitrophenyl)acrylamido)methyl)benzamide]	5.5	> 100	> 100	3.1	> 100	11	4.3	0.0	−27.4	–	–	–	–
Nc1ccccc1NC(=O)c1ccc(CNC(=O)/C(=C/C2CC2)c2ccc(F)cc2)cc1 [Compound 14, N-(2-Aminophenyl)-4-((3-(cyclopropyl)-2-(4-fluorophenyl)acrylamido)methyl)benzamide]	8	82	49	5.6	81	24	6.8	22.8	31.6	–	–	–	–
Nc1ccccc1NC(=O)c1ccc(CNC(=O)/C(=C/c2ccncc2)c2ccc(F)cc2)cc1 [Compound 15, N-(2-Aminophenyl)-4-((3-(pyridin-4-yl)-2-(4-fluorophenyl)acrylamido)methyl)benzamide]	8.8	95	60	2.7	94	30	5.8	42.7	56.9	3.8	–	–	–
COc1ccc(/C(=C\c2ccc(SC)cc2)C(=O)NCc2ccc(C(=O)Nc3ccccc3N)cc2)cc1 [Compound 16, N-(2-Aminophenyl)-4-((3-(4-methylthiophenyl)-2-(4-methoxyphenyl)acrylamido)methyl)benzamide]	45	> 100	97	40	> 100	82	42.5	30.7	46.0	–	–	–	–
COc1cc(/C=C(/C(=O)NCc2ccc(C(=O)Nc3ccccc3N)cc2)c2ccc(F)cc2)cc(OC)c1 [Compound 17, N-(2-Aminophenyl)-4-((3-(3,5-dimethoxyphenyl)-2-(4-fluorophenyl)acrylamido)methyl)benzamide]	38	> 100	80	29	> 100	69	33.5	25.7	20.3	–	–	–	–
Nc1ccccc1NC(=O)c1ccc(CNC(=O)/C(=C/c2ccnc3ccccc23)c2ccc(F)cc2)cc1 [Compound 22, N-(2-Aminophenyl)-4-((3-(quinolin-4-yl)-2-(4-fluorophenyl)acrylamido)methyl)benzamide]	7.6	> 100	80	7.9	> 100	70	7.8	32.9	56.1	3.2	–	–	–
CSc1ccc(/C=C(/C(=O)NCc2ccc(C(=O)Nc3ccccc3N)cc2)c2ccccc2Cl)cc1 [Compound 23, N-(2-Aminophenyl)-4-((3-(4-methylthiophenyl)-2-(2-chlorophenyl)acrylamido)methyl)benzamide]	34	> 100	> 100	4	98	8	19	–	–	–	> 100	> 100	> 100
COc1ccc(/C(=C\c2ccc(OC)c(OC)c2)C(=O)NCc2ccc(C(=O)Nc3ccccc3N)cc2)cc1 [Compound 27, N-(2-Aminophenyl)-4-((3-(3,4-dimethoxyphenyl)-2-(4-methoxyphenyl)acrylamido)methyl)benzamide]	2.1	–	> 100	0.4	> 100	> 100	1.2	37.1	47.2	–	–	–	–
COc1ccc(/C(=C\c2ccc(SC)cc2)C(=O)NCc2ccc(C(=O)NO)cc2)cc1 [Compound 57, 4-((2-(4-Methoxyphenyl)-3-(4-methylthiophenyl)acrylamido)methyl)-N-hydroxybenzamide]	3	33	8	1.8	54	8	1.7	–	–	–	0.2	60	0.4
CSc1ccc(/C=C(/C(=O)NCc2ccc(C(=O)NO)cc2)c2ccc(C)cc2)cc1 [Compound 58, 4-((2-(4-Methylphenyl)-3-(4-methylthiophenyl)acrylamido)methyl)-N-hydroxybenzamide]	2.1	81	6	2.8	65	18	8.6	–	–	–	21	80	35
COc1ccc(/C(=C\c2ccc(SC)cc2)C(=O)NCCCCCC(=O)NO)cc1 [Compound 92, 6-(2-(4-Methoxyphenyl)-3-(4-methylthiophenyl)acrylamido)-N-hydroxy hexanamide]	6	82	40	7.5	87	46	7.8	–	–	–	10	76	16
O=C(CCCCCNC(=O)/C(=C/C1CC1)c1ccc(F)cc1)NO [Compound 93, 6-(2-(4-Fluorophenyl)-3-(cyclopropyl)acrylamido)-N-hydroxy hexanamide]	> 100	> 100	> 100	54	> 100	> 100	73	–	–	–	92	> 100	> 100
CSc1ccc(/C=C(/C(=O)NCCCCCC(=O)NO)c2ccccc2F)cc1 [Compound 94, 6-(2-(2-Fluorophenyl)-3-(4-methylthiophenyl)acrylamido)-N-hydroxy hexanamide]	4.2	74	26	3.3	80	22	2.8	–	–	–	1	70	10
